Measured values: BigSolDB 2.1

Nc1nc(NC2CC2)c2ncn([C@H]3C=C[C@@H](CO)C3)c2n1
solubility (mole fraction)
Details	278.15 K	283.15 K	288.15 K	293.15 K	298.15 K	303.15 K	308.15 K	313.15 K	318.15 K	323.15 K
in acetone	0.00115	0.00123	0.00131	0.00142	0.00155	0.00169	0.00183	0.00205	0.00225	0.00247
in ethanol	0.00601	0.00651	0.00716	0.00803	0.00903	0.0104	0.0123	0.0142	0.0162	0.0184
in ethyl acetate	0.000631	0.000705	0.000796	0.000906	0.00102	0.00112	0.00127	0.00147	0.00168	0.00192
in isobutanol	0.00772	0.00823	0.00896	0.0101	0.0113	0.0121	0.0131	0.0144	0.0164	0.0182
in isopropanol	0.00451	0.00483	0.00534	0.006	0.00655	0.00744	0.00855	0.0096	0.0111	0.0123
in methanol	0.00623	0.00688	0.00825	0.00965	0.0109	0.0126	0.0147	0.0181	0.0209	0.0241
in methyl acetate	0.000901	0.00101	0.0011	0.00123	0.0014	0.00156	0.00176	0.00206	0.0023	0.0026
in n-butanol	0.00718	0.00798	0.0089	0.0103	0.0117	0.0133	0.0155	0.0177	0.0204	0.0231
in n-pentanol	0.00898	0.0106	0.012	0.0134	0.0153	0.0169	0.0195	0.0226	0.0248	0.0277
in n-propanol	0.00798	0.0087	0.00952	0.0107	0.0119	0.0136	0.0159	0.0184	0.0211	0.024
in sec-butanol	0.00768	0.00844	0.00927	0.0104	0.0118	0.0134	0.015	0.0172	0.0197	0.0222
in water	0.000239	0.000266	0.000295	0.000334	0.000386	0.000436	0.0005	0.000547	0.000649	0.000748
